{"source": "patent US7704490B2", "about": "(Institut Pasteur, priority 1998, dated 2010)", "key": {"mAb 19B11": {"test_system": "mAb 19B11", "assay": "ELISA inhibition of mAb 19B11 binding to IL-2 coated plates", "parameters": "species or system mouse", "settings": "control mAb"}, "[1]": {"test_system": "classical murine cell lines (C30-1, CTLL, HT-2, . . . )", "assay": "IP130 effects on classical murine IL-2 assay cell lines", "format": "cell-based", "settings": "cells without human IL-2Rβ", "text": "IP130 acts only on cell lines expressing human IL-2Rβ. […] Furthermore anti-human IL-2Rβ blocking mAb neutralizes the effects of IP130."}, "[2]": {"assay": "Sedimentation-diffusion equilibrium, quaternary structure", "format": "physicochemical", "settings": "concentration above 5×10^−6M", "text": "The quaternary structure of peptide IP130 was also studied by sedimentation-diffusion equilibrium."}, "[3]": {"test_system": "K562 or Daudi target cells", "assay": "Induction of LAK cells, 51Cr release lysis", "format": "cell-based, human", "settings": "for induction of LAK cells: PBMCs stimulated 3 or 6 days, lysis of K562 and Daudi targets", "description": "K562 or Daudi target cells (5×103 in 0.1 ml) labeled with Na2^51CrO4 (Amersham Pharmacia Biotech) were mixed in round-bottomed microwells with an equal volume of effector cells at various E/T ratios. After 4 hours of incubation at 37° C., the plates were centrifuged at 2,000 g for 2 min, and cell-free supernatant were collected using a Luma Plate 96 cell harvester (Lulac-LSC). Supernatant radioactivity was assayed using an automated MicroBeta 1450 trilux γ-counter (Wallac). Spontaneous release was determined by incubating target cells in medium alone. Maximum release was determined by adding 0.1 ml of 1M HCl to the target cell suspension. The percentage of specific lysis was calculated as follows: 100×(experimental ^51Cr release−spontaneous release)/(maximum ^51Cr release−spontaneous ^51Cr release)."}, "STAT": {"test_system": "STAT", "assay": "Electrophoretic mobility shift assay of STAT activation in KIT225 nuclear extracts", "format": "cell-based, human", "settings": "STAT-3 and STAT-5; β-casein, GAS and GIRE probes"}, "NK cells": {"test_system": "NK cells", "assay": "Cell cycle entry (S+G2/M) of NK cells in stimulated PBMC", "format": "cell-based, human", "description": "Non-specific responses (J+1 in medium) are subtracted. NK cells entry into S+G2/M phases are measured by propidium iodide and analyzed with the ModFit 2.0 software (Becton Dickinson)."}, "mAb H2-8": {"test_system": "mAb H2-8", "assay": "ELISA inhibition of mAb H2-8 binding to IL-2 coated plates", "parameters": "species or system mouse", "settings": "mAb at about 50% of maximum binding, preincubated with inhibitor", "description": "Control is represented by non coated plates.\nH2-8 was preincubated with different peptides including five decapeptides (1-10, 5-15, 10-20, 15-25, 20-30)."}, "Kit 225 cell line": {"test_system": "Kit 225 cell line", "assay": "Protein phosphorylation and c-myc induction in Kit 225 cell line", "format": "cell-based, human", "text": "IP130 induces SHC protein phosphorylation. […] Kinetics of Shc phosphorylation is shown on the left. A Western blot of Shc protein is shown on the right.\nAlone the peptide induces the phosphorylation of proteins on Kit 225 cell line. […] STAT-3 and STAT-5 are not activated after IP130 stimulation since IL-2Rγ is not involved in IP130 interaction with Kit 225."}, "TS1 cells": {"test_system": "TS1 cells", "assay": "IP130 proliferation of TS1 cells with or without human IL-2Rβ", "format": "cell-based, murine", "settings": "with or without transfection by human IL-2Rβ gene"}, "[4]": {"assay": "Circular dichroism, α helix content", "format": "physicochemical", "settings": "for α-helix content: isolated peptide, circular dichroism"}, "TS1β cells": {"test_system": "TS1β cells", "assay": "TS1β proliferation assay, activity of peptides and IL-2 muteins", "format": "cell-based, murine", "settings": "for proliferation of TS1β induced by the peptide: in the absence of IL-2", "description": "Background of 1.4×10^3 cpm was subtracted. […] TS1β target cells are derived from TS1 murine cells (which only express murine IL-2Rγ), after transfection with the human IL-2Rβ gene.\nThe response to. IL-2 or peptide alone was substracted from that obtained from both IL-2 and peptide.\nThe biological activity of IL2 mutant Asp 20→Lys (□) is shown for comparison\nTS1β cells were cultured (10^4 cells/well) in 96 wells in flat-bottomed microtiter plates with a final volume of 0.2 ml. […] In order to test the inhibitory effect of mAbs, different concentrations of these reagents were mixed in the culture wells with the respective lymphokines for 30 min at low temperature before adding the cells. […] Cultures were pulsed with 0.5 μCi/well of (3H) TdR after 36 h of incubation and harvested 15 h later."}, "IFN-γ production": {"test_system": "IFN-γ production", "assay": "IFN-γ production", "format": "cell-based"}, "IL-2Rβ": {"target": "T1, IL-2Rβ (Homo sapiens, UniProt P14784)", "T1 sequence (P14784 27-551)": "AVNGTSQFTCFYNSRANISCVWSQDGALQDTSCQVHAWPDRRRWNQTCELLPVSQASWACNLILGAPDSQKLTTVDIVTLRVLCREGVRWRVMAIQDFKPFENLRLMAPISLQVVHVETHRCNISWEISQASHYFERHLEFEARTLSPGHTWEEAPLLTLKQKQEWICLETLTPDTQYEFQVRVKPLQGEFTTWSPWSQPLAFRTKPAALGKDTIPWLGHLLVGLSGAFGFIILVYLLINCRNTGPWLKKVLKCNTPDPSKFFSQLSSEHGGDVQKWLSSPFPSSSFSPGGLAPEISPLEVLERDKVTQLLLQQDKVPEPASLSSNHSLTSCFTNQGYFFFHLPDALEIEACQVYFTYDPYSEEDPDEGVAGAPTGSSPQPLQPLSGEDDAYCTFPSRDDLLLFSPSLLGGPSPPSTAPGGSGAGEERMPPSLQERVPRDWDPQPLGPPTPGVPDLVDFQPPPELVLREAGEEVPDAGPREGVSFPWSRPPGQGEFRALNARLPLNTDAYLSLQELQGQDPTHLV", "settings": "cited from earlier work"}, "IL-2R": {"test_system": "IL-2R", "assay": "Affinity of IL-2 mutant for IL-2R", "format": "binding", "settings": "compared with IL-2"}}, "note": "Entries after “also recorded” stand apart in the source; their conditions may differ. No end group written: not given here.", "data": [{"substance": "APTSSSTKKTQLQLEHLLLDLQMILNGINN [IP130]", "values": [{"measurement": "inhibition of the binding of mAb 19B11 to IL-2", "setting": "mAb 19B11", "value": "inhibited"}, {"measurement": "sensitivity of classical murine cell lines to the peptide", "setting": "[1]", "value": "insensitive"}, {"measurement": "quaternary structure", "setting": "[2]", "value": "most of the molecules are in a tetrameric form"}, {"measurement": "induction of LAK cells", "setting": "[3]", "value": "able to induce LAK cells in a concentration dependent manner; also recorded: potent LAK cell response"}, {"measurement": "LAK response compared with IL-2, day 3", "setting": "[3]; day 3", "value": "weaker than that of IL-2"}, {"measurement": "LAK response compared with IL-2, day 6", "setting": "[3]; day 6", "value": "comparable"}, {"measurement": "STAT activation", "setting": "STAT", "value": "not activated; also recorded: does not induce STAT activity"}, {"measurement": "entry of NK cells into the cell cycle", "setting": "NK cells", "value": "induces NK cells to enter into the cell cycle"}, {"measurement": "inhibition of the binding of mAb H2-8 to IL-2", "setting": "mAb H2-8", "value": "most efficient inhibitor"}, {"measurement": "c-myc induction", "setting": "Kit 225 cell line", "value": "observed"}, {"measurement": "phosphorylation of IL-2Rβ", "setting": "Kit 225 cell line; immunoprecipitation, blotting with mAb 4G10 (anti-Ptyr)", "value": "phosphorylated IL-2Rβ is identified"}, {"measurement": "phosphorylation of Shc", "setting": "Kit 225 cell line; peptide alone", "value": "the kinase Shc is easily recognized; also recorded: phosphorylated after a ten minute stimulation"}, {"measurement": "proliferation of TS1 cells in the presence of IP130", "setting": "TS1 cells", "value": "TS1 cells only proliferate after transfection by the human IL-2Rβ gene"}, {"measurement": "residues in an α helix configuration", "setting": "[4]; 20° C., phosphate buffer (20 mM, pH 7.2)", "value": 50, "unit": "%"}, {"measurement": "α-helix content", "setting": "[4]", "value": "50%±7%"}, {"measurement": "IC-50 of proliferation and of synergy with IL-2", "setting": "TS1β cells; both activities at comparable concentrations", "value": "IC-50≅μM"}, {"measurement": "proliferation of TS1β induced by the peptide", "setting": "TS1β cells", "value": "stimulates the proliferation"}, {"measurement": "synergy with IL-2 on TS1β proliferation", "setting": "TS1β cells; in the presence of IL-2", "value": "strong synergy"}, {"measurement": "induction of IFN-γ production", "setting": "IFN-γ production", "value": "ability to induce LAK cells and IFNγ production"}]}, {"substance": "IL2 Asp 20→Lys mutant: IL-2 with substitution Asp20 by Lys [reference compound]", "values": [{"measurement": "biological activity on Ts1β cells", "setting": "TS1β cells; 5×10-3 to 10 nM, compared with IL-2 (FIG. 18)", "value": "clearly reduced"}, {"measurement": "binding to IL-2Rβ", "setting": "IL-2Rβ", "value": "prevents binding to IL-2Rβ"}]}, {"substance": "IL-2 Pro125: IL-2 mutant IL-2 Pro125 (Cys→Pro) [reference compound]", "values": [{"measurement": "maximum proliferation of TS1β", "setting": "TS1β cells; higher concentrations of mutant", "value": "without affecting the maximum proliferation"}, {"measurement": "affinity for IL-2R", "setting": "IL-2R", "value": "slightly reduces the affinity"}]}, {"substance": "IP131 Asp 20→Lys: Peptide 1-31 mutated at position 20 (Asp→Lys), SEQ ID NO:8 (APTSSSTKKTQLQLEHLLLKLQMILNGINNY)", "values": [{"measurement": "induction of LAK cells", "setting": "[3]", "value": "capacity to generate LAK cells"}, {"measurement": "proliferation of TS1β induced by the peptide", "setting": "TS1β cells", "value": "maintains its inductive capacity on proliferation"}, {"measurement": "induction of IFN-γ production", "setting": "IFN-γ production", "value": "induce IFN-γ production"}]}, {"substance": "peptide 1-10: synthetic IL-2 decapeptide, residues 1-10 (APTSSSTKKT-NH2; UniProt P60568 21-30, looked up, fragment)", "values": [{"measurement": "inhibition of the binding of mAb 19B11 to IL-2", "setting": "mAb 19B11", "value": "inhibited"}]}, {"substance": "peptide 1-22: synthetic IL-2 peptide, residues 1-22 (APTSSSTKKTQLQLEHLLLDLQ; UniProt P60568 21-42, looked up, fragment)", "values": [{"measurement": "inhibition of the binding of mAb 19B11 to IL-2", "setting": "mAb 19B11", "value": "inhibited"}, {"measurement": "α-helix content", "setting": "[4]", "value": "13%±5%"}]}]}
